Source: patent publication US20250295795A1, “PEPTIDE” (priority 2021, published 2025)

Experiments:
Type in all cases: cell-based, human
HeLa cells [1] = experiment: Time course of uptake in Hela cells (continuous live cell confocal microscopy, ROI profile analysis); details: 1 μM; representative cells
Description: To better understand the mechanism by which tri-Tat A and tri-cTat B enter the cytosol and the nucleus, we investigated the uptake kinetics of the conjugates during the first 15 min after their addition to Hela cells using confocal live cell microscopy. Tri-Tat A (FIG. 3a) or tri-cTat B (FIG. 3b) (1 μM) were added to the cells and images acquired from 1 min to 15 min at 60 sec intervals. The two trimers show distinct uptake patters into Hela cells; to better understand the difference in uptake kinetics, we drew cross sectional profile plots through representative cells treated with tri-Tat A (FIG. 3c) and tri-cTat B (FIG. 3d). […] To investigate whether findings in individual cells also apply to larger populations, we extended the plot profile analysis by designating regions of interest (ROI) corresponding to plasma membrane, cytosol (excluding endosomes), nucleus, and nucleoli along the cross section, using information from brightfield images.^30 Average fluorescence intensities for each ROI, at each time point, in six cells per treatment group were calculated and plotted in FIGS. 3e-3h.
(§1) HeLa and CHO cells were cultured in DMEM supplemented with 10% FBS and penicillin/streptomycin. For post-wash experiments, Tat conjugate was added to the cells in serum free medium, cells incubated at 37° C. in an atmosphere of 5% CO2, culture medium removed at the desired time point, cells washed and transferred to the microscope for imaging. For time course or pre-wash experiments, cells were transferred to the microscope (incubation chamber at 37° C., 5% CO2) and Tat conjugate added directly to cell medium and cells imaged at desired time points. Co-delivery experiments were conducted by adding peptide trimer immediately followed by cargo into serum free medium. Samples were visualised using a Zeiss LSM 780 inverted confocal microscope fitted with a XLmultiS1 incubation chamber and Plan-Apochromat 63×/1.40 Oil DIC M27 objective. Images were analysed using ImageJ software. Digital adjustments and image processing are consistent throughout the manuscript, unless otherwise stated in the figure legend. Statistical analysis was carried out using GraphPad Prism 7 software and all data used for statistical analysis consists of measurements from distinct cells. Where applicable a parametric, unpaired, two-tailed t-test was used for statistical testing.

HeLa cells [2] = experiment: Co-delivery of antibodies, antibody fragments and RFP into live Hela cells
Excerpt: Access to the cytosol by mechanisms that are independent of transmembrane pore formation constitutes a preferred method of co-delivery due to reduced toxicity to the cell. […] Successful delivery of Fab is indicated by homogenous distribution of AF647 signal in the cytosol and nucleus and is only observed in cells which have been transduced with tri-cTat B (FIG. 13). Time course of Fab uptake by tri-cTat B (FIG. 5c) follows a similar pattern as tri-cTat B alone (FIG. 3b, d). Tri-cTat B and Fab form large vesicle-like bodies that appear to release their contents into the cytosol of the cell; unambiguous cytosolic staining by Fab is observed from 23 min. Interaction between peptide trimer and biomacromolecule, mediated by charge-charge interactions is essential for the accumulation of both in endosomes and subsequent release and delivery of cargo into cells. Delivery of relatively β-sheet rich, neutrally charged recombinant RFP was unsuccessful (FIG. 16) due to a lack of association between tri-cTat B and cargo (FIG. 17). On the other hand, interaction diminishes the efficacy of the peptide trimer due to charge masking, emphasising the need to maintain an appropriate peptide to cargo ratio for a given macromolecule. Experiments to explore the efficacy of tri-cTat B in the presence of serum supplemented medium underline this principle; while tri-cTat B continues to function in the presence of serum, the number of transduced cells diminishes (42% (serum) vs. 61% (serum free)), but can be restored by increasing tri-cTat B concentration to 2 μM (79% (serum); FIG. 15). […] This is likely due to the larger size of antibodies and also to the observation that antibodies have a greater tendency to aggregate in the presence of tri-cTat B compared to Fab fragments. […] Finally, we investigated whether it is possible to deliver functional antibodies and antibody fragments into the cytosol and nuclei of cells. β-actin was chosen as a proof-of-principle protein because of its abundance in the cell and formation of distinctive subcellular filaments. To clearly identify actin filaments, Hela cells were transfected with red fluorescent protein fused to actin (actin-RFP) before being incubated with β-actin antibody (mouse IgG2b) or β-actin Fab fragment (mouse) conjugated to AF647 plus tri-cTat B for 30 min. After washing, cells were left for 60 min to allow IgG/Fab to bind to actin filaments. […] To enable objective quantification of co-localization between β-actin filaments and IgG/Fab fragment (white arrows), a co-localization threshold algorithm was used in selected regions of interest (ROI). Pearson's and Manders' coefficients were obtained under Costes' automatic threshold^32 and the co-localized pixels are shown as a mask of yellow pixels of constant intensity (co-localization panels). The significance of the co-localization parameters (Pearson's and Manders' coefficients) was evaluated using the confined displacement algorithm (CDA).
as §1, with “Statistical analysis was carried out using GraphPad Prism 7 software and all data used for statistical analysis consists of measurements from distinct cells. Where applicable a parametric, unpaired, two-tailed t-test was used for statistical testing.” left out

HeLa cells [3] = experiment: Live cell confocal microscopy: cellular uptake and intracellular distribution of Tat conjugates in HeLa cells
Description: The cellular uptake and intracellular distribution of Tat-trimers and monomeric controls was investigated by performing live cell confocal microscopy of HeLa (human, cervical cancer) and CHO (Chinese hamster, […]). Following washing, images were acquired using a Zeiss 780 confocal microscope fitted with an incubation chamber (FIG. 2). In accordance with observations that free Tat in the cytosol readily enters the nucleus and strongly binds to nucleoli,^29 homogenous staining of cytoplasm and nucleoli were considered as indicative of cells having accumulated free conjugate, not confined to endosomes, for quantification purposes. […] The uptake and intracellular distribution of tri-Tat A is similar in live Hela and CHO cells (FIG. 2b,d,e).
Following washing, images were acquired using a Zeiss 780 confocal microscope fitted with an incubation chamber. In accordance with observations that free Tat in the cytosol readily enters the nucleus and strongly binds to nucleoli,^29 homogenous staining of cytoplasm and nucleoli were considered as indicative of cells having accumulated free conjugate, not confined to endosomes, for quantification purposes. The results were compared to tri-Tat A (8) and tri-cTat B (17).
as §1

## N=C(N)NCCC[C@@H]1NC(=O)[C@H](CCCNC(=N)N)NC(=O)[C@H](CCCNC(=N)N)NC(=O)[C@H](CCC(N)=O)NC(=O)[C@H](CCCNC(=N)N)NC(=O)[C@H](CCCNC(=N)N)NC(=O)[C@H](CCCCN)NC(=O)[C@H](CCCCN)NC(=O)[C@H](CCCNC(=N)N)NC(=O)[C@H](CCCCn2cc(COCC(COCc3cn(CCCCCCNC(=O)c4ccc5c(c4)C(=O)OC54c5ccc(N)c(S(=O)(=O)O)c5Oc5c4ccc(N)c5S(=O)(=O)O)nn3)(COCc3cn(CCCC[C@@H]4NC(=O)CC[C@@H](C(N)=O)NC(=O)[C@H](CCCNC(=N)N)NC(=O)[C@H](CCCNC(=N)N)NC(=O)[C@H](CCCNC(=N)N)NC(=O)[C@H](CCC(N)=O)NC(=O)[C@H](CCCNC(=N)N)NC(=O)[C@H](CCCNC(=N)N)NC(=O)[C@H](CCCCN)NC(=O)[C@H](CCCCN)NC(=O)[C@H](CCCNC(=N)N)NC4=O)nn3)COCc3cn(CCCC[C@@H]4NC(=O)CC[C@@H](C(N)=O)NC(=O)[C@H](CCCNC(=N)N)NC(=O)[C@H](CCCNC(=N)N)NC(=O)[C@H](CCCNC(=N)N)NC(=O)[C@H](CCC(N)=O)NC(=O)[C@H](CCCNC(=N)N)NC(=O)[C@H](CCCNC(=N)N)NC(=O)[C@H](CCCCN)NC(=O)[C@H](CCCCN)NC(=O)[C@H](CCCNC(=N)N)NC4=O)nn3)nn2)NC(=O)CC[C@@H](C(N)=O)NC1=O (stereo partly shown) [tri-cTat B]
HeLa cells [1]
  association with plasma membrane (profile plots): little association with plasma membrane
HeLa cells [2]; 166 nM IgG-AF647 + 1 μM trimer, 45 min
  cells showing homogenous AF647 staining in cytosol and nucleus (whole IgG co-delivery): approximately 20%
HeLa cells [2]; 500 nM AF647-labelled non-specific mouse Fab + 1 μM trimer, 30 min
  cells with Fab delivered into cytosol and nucleus: 50%
HeLa cells [2]; 500 nM Fab-AF647 + 1 μM trimer
  time from which unambiguous cytosolic staining by Fab is observed: 23 min
HeLa cells [2]; 1 μM trimer + 1 or 2 μM recombinant RFP, 30 min, serum free
  delivery of recombinant RFP: unsuccessful
HeLa cells [3]; 1 μM, 60 min, serum-free
  transduction efficacy in comparison (average fluorescence intensity per cell, percentage of transduced cells): more effective at cellular transduction in comparison to tri-cTat A
HeLa cells [3]; HeLa cells, 1 μM, 60 min, serum-free DMEM, post-wash
  cellular uptake and intracellular distribution: taken up into the cytosol and nucleoli
HeLa cells [3]; serum free, 1 μM
  number of transduced cells: 61%
HeLa cells [3]; serum supplemented medium, 1 μM, 60 min
  number of transduced cells: 42%
HeLa cells [3]; serum supplemented medium, 2 μM, 60 min
  number of transduced cells: 79%
